The text below walks through data of patent US11191850B2, “Molecular probes for detection and imaging of pancreatic cancer” (Portland State University, priority 2016, dated 2021).

Data set [1] is described as follows: UV-Vis absorption and fluorescence spectroscopy. To be noted: for pH and solvent sensitivity of UV and fluorescence spectra: 10-15 μM, aqueous 10% DMSO with HCl, NaOH or pH 7.4 buffer, various solvents; for Extinction coefficient / λmax abs: 10% DMSO. It counts as physicochemical. Details: Brightness: unit not given here. The source says:
UV-Vis absorption and fluorescence spectroscopy. UV-Vis spectra were collected with a Cary 50 UV-Vis spectrophotometer at room temperature, using a 1-cm quartz cuvette. Fluorescence spectra were collected on a Cary Eclipse fluorescence spectrophotometer (Agilent Technologies). All absorbance spectra were reference corrected. Fluorescence spectra were corrected for the wavelength dependent response of the R928 photomultiplier tube using a manufacturer generated correction file. Quantum yields are reported as the average of multiple measurements using multiple references. Excitation emission matrices (EEMs) were collected over various spectral regions, using 5-nm step sizes for emission and 10-nm step sizes for excitation. The band pass for excitation and emission was 5 to 10 nm.
(§1) Probes 1-13 were screened for pH and solvent sensitivity. Solvent sensitivity or dependence is at least partially attributable to differences in the equilibria between tautomeric forms of the compounds in the various solvents evaluated. The fluorophore concentrations ranged from 10-15 μM. Aqueous solutions contained 10% DMSO and 12.5 mM HCl, 12.5 mM NaOH, or pH 7.4 phosphate buffer.

Data set [2] can be described thus: pKa of ionizable fluorophores (pH sensitivity screening). Particulars: aqueous solutions with 10% DMSO. It counts as physicochemical. How it is done:
as §1

Setting [3] is: basic solution pH 12.1, NaOH, 15 μM.
The mark [4] stands for this setting: conjugate acid, acidic solution pH 1.9, HCl, 15 μM.
The mark [5] stands for this setting: conjugate base, basic solution pH 12.1, NaOH.
Where [6] appears, read: conjugate base, pH 12.1, NaOH, excited at 630 nm.
Setting [7] is: acidic solution pH 1.9, HCl, excited at 480 nm or 510 nm.
[8] abbreviates: pH 7.4 phosphate buffer, methyl ether derivatives.
Where [9] appears, read: pH 7.4 buffer, excited at 480 nm.
[10] abbreviates: pH 7.4 buffer, methyl ether derivatives.
The mark [11] stands for this setting: pH 7.4 buffer, excited at 630 nm.
The mark [12] stands for this setting: pH 7.4 buffer, seminaphthorhodamines.
[13] abbreviates: pH 7.4 phosphate buffer, seminaphthorhodamines.

SMILES strings stand for the structures. Values joined by “and” are separate entries in the source; they are usually repeats but may differ in a detail not shown here. Equal values may be shown once.

Turning to `COC(=O)c1ccccc1-c1c2ccc(=O)cc-2oc2c1ccc1cccc(N(C)C)c12` [Compound 8, methyl 2-(1-(dimethylamino)-10-oxo-10H-benzo[c]xanthen-7-yl)benzoate], in data set [1], the “pH and solvent sensitivity of UV and fluorescence spectra” value (“pH and solvent sensitivity” below) is on record as “not affected by either solvent changes or by solution pH values above 2”. Besides, in data set [1] (basic solution pH 12.1, NaOH), the Stokes shift was 21 nm and the λmax em is 530 nm. In data set [1] (setting [3]), this molecule yielded an Extinction coefficient of 8834 M⁻¹ cm⁻¹ and a λmax abs of 530 nm. For the same molecule, in data set [1] (setting [4]), the Extinction coefficient was 10132 M⁻¹ cm⁻¹ and the λmax abs is 480 nm. Further, in data set [1] (conjugate acid, pH 1.9, HCl), the Stokes shift is 100 nm and the λmax em is 580 nm. Also, the pKa in data set [2] (Table 5) is given as 4.36 +/− 0.04.

On to `COC(=O)c1ccccc1-c1c2ccc(=[N+](C)C)cc-2oc2c1ccc1cccc(O)c12` [Compound 5, N-(1-hydroxy-7-(2-(methoxycarbonyl)phenyl)-10H-benzo[c]xanthen-10-ylidene)-N-N-dimethyl iminium bicarbonate], for which the “pH and solvent sensitivity” value in data set [1] was “exhibit pH as well as solvent sensitivity”. In data set [1] (acidic solution pH 1.9, HCl), the Extinction coefficient was 20399 M⁻¹ cm⁻¹. In data set [1] (setting [5]), the Extinction coefficient amounted to 17252 M⁻¹ cm⁻¹ and the λmax abs was found to be 632 nm. Moreover, in data set [1] (conjugate base, pH 12.1, NaOH), the Brightness worked out at 29 and the Stokes shift worked out at 148 nm. In data set [1] (setting [6]), this molecule yielded a Quantum yield of 0.17% and a λmax em of 780 nm.

For `COC(=O)c1ccccc1-c1c2ccc(=N)cc-2oc2c1ccc1cccc(O)c12.Cl` [Compound 3, 1-hydroxy-7-(2-(methoxycarbonyl)phenyl)-10H-benzo[c]xanthen-10-iminium chloride], the “pH and solvent sensitivity” value in data set [1] is listed as “exhibit pH as well as solvent sensitivity”. In addition, in data set [1] (acidic solution pH 1.9, HCl), the Brightness is reported as 226, the Stokes shift was determined as 62 nm, the Extinction coefficient was 19787 M⁻¹ cm⁻¹ and the λmax abs turned out to be 542 nm. Besides, in data set [1] (setting [7]), the Quantum yield was found to be 1.14% and the λmax em is listed as 604 nm. In data set [1] (setting [5]), this molecule had an Extinction coefficient of 15589 M⁻¹ cm⁻¹ and a λmax abs of 621 nm. Also, in data set [1] (conjugate base, pH 12.1, NaOH), the Brightness stood at 17 and the Stokes shift is on record as 149 nm. In data set [1] (setting [6]), this molecule came in with a Quantum yield of 0.11% and a λmax em of 770 nm. The pKa in data set [2] (Table 1) was 6.67 +/− 0.11.

As for `COC(=O)c1ccccc1-c1c2ccc(=N)cc-2oc2c1ccc1cccc(OC)c12.O=C(O)O` [Compound 4, 1-methoxy-7-(2-(methoxycarbonyl)phenyl)-10H-benzo[c]xanthen-10-iminium bicarbonate], the “pH and solvent sensitivity” value in data set [1] is given as “insensitive to variations in pH or solvent”. This molecule also returned an Extinction coefficient in data set [1] (setting [8]) of 21742 M⁻¹ cm⁻¹.

As for `COC(=O)c1ccccc1-c1c2ccc(=O)cc-2oc2c1ccc1cccc(N)c12` [Compound 7, methyl 2-(1-amino-10-oxo-10H-benzo[c]xanthen-7-yl)benzoate], the “pH and solvent sensitivity” value in data set [1] was “not affected by either solvent changes or by solution pH values above 2”. For the same molecule, the Extinction coefficient in data set [1] (setting [3]) is 5664 M⁻¹ cm⁻¹ and 8300 M⁻¹ cm⁻¹. For the same molecule, in data set [1] (setting [4]), the Extinction coefficient came to 3996 M⁻¹ cm⁻¹ and the λmax abs is listed as 598 nm. Further, in data set [1] (conjugate acid, pH 1.9, HCl), the Stokes shift came to 172 nm and the λmax em came out at 770 nm.

On to `COC(=O)c1ccccc1C1=c2cc3c4c(c2Oc2c1ccc1cccc(O)c21)CCC[N+]=4CCC3` [Compound 11, 15-hydroxy-9-(2-(methoxycarbonyl)phenyl)-1,2,3,5,6,7-hexahydrobenzo[7,8]chromeno[2,3-f]pyrido[3,2,1-ij]quinolin-4-ium chloride], for which the “pH and solvent sensitivity” value in data set [1] was “exhibit pH as well as solvent sensitivity”. Also, in data set [1] (acidic solution pH 1.9, HCl), the Brightness is 2314, the Stokes shift is 39 nm, the Extinction coefficient amounted to 15134 M⁻¹ cm⁻¹ and the λmax abs is 585 nm. In data set [1] (setting [7]), the Quantum yield is recorded as 15.29% and the λmax em is reported as 624 nm. Also, in data set [1] (setting [5]), the Extinction coefficient worked out at 14454 M⁻¹ cm⁻¹ and the λmax abs worked out at 643 nm. For the same molecule, in data set [1] (conjugate base, pH 12.1, NaOH), the Brightness is 43 and the Stokes shift is given as 127 nm. In data set [1] (setting [6]), this molecule had a Quantum yield of 0.30% and a λmax em of 770 nm. Moreover, in data set [2] (Table 1), the pKa is recorded as 7.84 +/− 0.11.

Turning to `COC(=O)c1ccccc1-c1c2ccc(=[N+](C)C)cc-2oc2c1ccc1cccc(OC)c12.[Cl-]` [Compound 6, N-(1-methoxy-7-(2-(methoxycarbonyl)phenyl)-10H-benzo[c]xanthen-10-ylidene)-N-methylmethanaminium chloride], in data set [1], the “pH and solvent sensitivity” value is given as “insensitive to variations in pH or solvent”. In addition, in data set [1] (setting [9]), the Quantum yield is listed as 9.32% and the λmax em stood at 606 nm. In data set [1] (setting [10]), the Brightness turned out to be 2094 and the Stokes shift worked out at 38 nm. Also, in data set [1] (setting [8]), the Extinction coefficient was 22470 M⁻¹ cm⁻¹ and the λmax abs came out at 568 nm.

In the case of `COC(=O)c1ccccc1-c1c2ccc(=N)cc-2oc2c1ccc1cccc(N)c12.Cl` [Compound 9, 1-amino-7-(2-(methoxycarbonyl)phenyl)-10H-benzo[c]xanthen-10-iminium chloride], the “pH and solvent sensitivity” value in data set [1] is listed as “not pH dependent, but were modestly solvent sensitive”. Also, in data set [1] (setting [11]), the Quantum yield worked out at 0.18% and the λmax em came to 760 nm. Further, in data set [1] (setting [12]), the Brightness is recorded as 25 and the Stokes shift stood at 184 nm. Further, in data set [1] (setting [13]), the Extinction coefficient came to 13872 M⁻¹ cm⁻¹ and the λmax abs came out at 576 nm.
